Reference: patent US20220324912A1, “THERAPEUTIC PEPTIDES” (COHBAR, INC., priority 2019, published 2022)
Blank lines part the entries; values can stand above or below the molecule they belong to. Non-standard residues stand in square brackets, D forms with d. Residues, ends and D or L forms follow the SMILES beside them. No end group written: not given here.

Experiments:
3T3-L1 adipocytes = assay: Free Fatty Acid Levels in 3T3-L1 Adipocytes (Example 4, 25 μM); assay type: cell-based, mouse; settings: peptides 25 μM, 20-22 hours then 3 hours with isoproterenol 1 nM, 3T3-L1 adipocytes
Experimental: Following 12-15 days' differentiation, test peptides were added to a final concentration of 25 μM and incubated for 20-22 hours in Adipocyte Maintenance Medium. After 20-22 hours, isoproterenol (1 nM) was added to all wells except untreated controls and test peptides were replenished. Cells were incubated for a further 3 hours in Assay Buffer (Zen-Bio). Free fatty acid concentrations in the media were determined using a Free Fatty Acid Assay Kit (Zen-Bio) according to the manufacturer's instructions using a plate reader (540 nm). Absorbance values were corrected for untreated background and expressed relative to isoproterenol treated cells. Treatment with isoproterenol (1 nM) alone was used as the free fatty acid level stimulatory control. The relative standard deviation of the isoproterenol control was <10%. […] Free fatty acid levels for insulin (100 nM) treatment were <5% of the isoproterenol control value.

[1] = Stability in Mouse Plasma; assay type: in vitro ADME; settings: pooled mouse plasma, 37° C., peptides 100 DM; for remaining at 0.25 h, 100 DM: 15 min; for remaining at 0.5 h, 100 DM: 30 min; for remaining at 1 h, 100 DM: 60 min; for remaining at 2 h, 100 DM: 120 min; for remaining at 3 h, 100 DM: 180 min
Experimental: Peptides (100 DM) were incubated in pooled mouse plasma at 37° C. and samples were removed and immediately analyzed for the concentration of intact peptide by LC/MS/MS over the course of 3 hours. The percent of peptide remaining in plasma at each time point was calculated relative to the initial peak area (Table 9).

Molecule: 3 (LAVRRTARAIG) [compound 3]
Free fatty acid levels, Percent of Control Value (percent isoproterenol control) (3T3-L1 adipocytes): 91%

Molecule: 4 (LAVRRTARAI) [compound 4]
Free fatty acid levels, Percent of Control Value (percent isoproterenol control) (3T3-L1 adipocytes): 102%

Molecule: 5 (LAVRRTARA[dA]) [compound 5]
Free fatty acid levels, Percent of Control Value (percent isoproterenol control) (3T3-L1 adipocytes): 109%

Molecule: 21 (TFQKTHNLNQHNHPQPNY) [compound 21]
Free fatty acid levels, Percent of Control Value (percent isoproterenol control) (3T3-L1 adipocytes): 91%

Molecule: 22 ([dA]FQKTHNLNQHNHPQPNY) [compound 22]
Free fatty acid levels, Percent of Control Value (percent isoproterenol control) (3T3-L1 adipocytes): 135%

Molecule: 23 ([dA]FQKTHNLNQHNHPQ[dA]N) [compound 23]
Free fatty acid levels, Percent of Control Value (percent isoproterenol control) (3T3-L1 adipocytes): 114%

Molecule: 26 (VVKGPLSEGGHPWGREGI) [compound 26]
Free fatty acid levels, Percent of Control Value (percent isoproterenol control) (3T3-L1 adipocytes): 129%

Molecule: 27 (VVKGPLSEGGHPWGREG) [compound 27]
Free fatty acid levels, Percent of Control Value (percent isoproterenol control) (3T3-L1 adipocytes): 89%

Molecule: 28 (VKAPLSEGGHPWGREG) [compound 28]
Free fatty acid levels, Percent of Control Value (percent isoproterenol control) (3T3-L1 adipocytes): 135%

Molecule: 31 (WAIDEKAVEASGE) [compound 31]
Free fatty acid levels, Percent of Control Value (percent isoproterenol control) (3T3-L1 adipocytes): 115%

Molecule: 32 (W[dA]IDEKAVEASGE) [compound 32]
Free fatty acid levels, Percent of Control Value (percent isoproterenol control) (3T3-L1 adipocytes): 102%

Molecule: 33 (W[dA]IDEKAVE[dA]SGE) [compound 33]
Free fatty acid levels, Percent of Control Value (percent isoproterenol control) (3T3-L1 adipocytes): 92%

% Remaining at 0 min [1]: 100%
remaining at 0.25 h, 100 DM [1]: 84.9%
remaining at 0.5 h, 100 DM [1]: 82.7%
remaining at 1 h, 100 DM [1]: 70.9%
remaining at 2 h, 100 DM [1]: 58.7%
remaining at 3 h, 100 DM [1]: 45%
Molecule: CC[C@H](C)[C@H](NC(=O)[C@H](C)NC(=O)[C@H](CO)NC(=O)CNC(=O)[C@@H]1CCCN1C(=O)[C@H](CC(C)C)NC(=O)[C@@H](N)CCCNC(=N)N)C(=O)N[C@@H](CC(C)C)C(=O)N[C@H](C(=O)N[C@@H](CC(N)=O)C(=O)N1CCC[C@H]1C(=O)N[C@H](C(=O)N[C@@H](CC(C)C)C(=O)NCC(=O)N[C@@H](Cc1c[nH]c2ccccc12)C(=O)N[C@H](C(=O)N[C@@H](Cc1c[nH]c2ccccc12)C(=O)N[C@H](C(=O)O)C(C)C)C(C)C)C(C)C)[C@@H](C)O [compound 8] (H-RLPGSAILTNPVLGWVWV-OH)

% Remaining at 0 min [1]: 100%
remaining at 0.25 h, 100 DM [1]: 90.5%
remaining at 0.5 h, 100 DM [1]: 81%
remaining at 1 h, 100 DM [1]: 72%
remaining at 2 h, 100 DM [1]: 56.5%
remaining at 3 h, 100 DM [1]: 46.6%
Molecule: CC[C@H](C)[C@H](NC(=O)[C@@H](C)NC(=O)[C@H](CO)NC(=O)CNC(=O)[C@@H]1CCCN1C(=O)[C@H](CC(C)C)NC(=O)[C@@H](N)CCCNC(=N)N)C(=O)N[C@@H](CC(C)C)C(=O)N[C@H](C(=O)N[C@@H](CC(N)=O)C(=O)N1CCC[C@H]1C(=O)N[C@H](C(=O)N[C@@H](CC(C)C)C(=O)NCC(=O)N[C@@H](Cc1c[nH]c2ccccc12)C(=O)N[C@H](C(=O)N[C@@H](Cc1c[nH]c2ccccc12)C(=O)N[C@H](C(=O)O)C(C)C)C(C)C)C(C)C)[C@@H](C)O [compound 9] (H-RLPGS[dA]ILTNPVLGWVWV-OH)

% Remaining at 0 min [1]: 100%
remaining at 0.25 h, 100 DM [1]: 76.5%
remaining at 0.5 h, 100 DM [1]: 58.1%
remaining at 1 h, 100 DM [1]: 44.4%
remaining at 2 h, 100 DM [1]: 18.1%
remaining at 3 h, 100 DM [1]: 8.9%
Molecule: CC[C@H](C)[C@H](NC(=O)[C@@H](C)NC(=O)[C@H](CO)NC(=O)CNC(=O)[C@@H]1CCCN1C(=O)[C@H](CC(C)C)NC(=O)[C@@H](N)CCCNC(=N)N)C(=O)N[C@@H](CC(C)C)C(=O)N[C@H](C(=O)N[C@@H](CC(N)=O)C(=O)N1CCC[C@H]1C(=O)N[C@H](C(=O)N[C@@H](CC(C)C)C(=O)NCC(=O)N[C@@H](Cc1c[nH]c2ccccc12)C(=O)N[C@H](C(=O)O)C(C)C)C(C)C)[C@@H](C)O [compound 10] (H-RLPGS[dA]ILTNPVLGWV-OH)
